Measured values: PubChem BioAssay (NCI)
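The concentration for 50% growth inhibition is given as GI50. TGI marks complete inhibition of growth.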

What was measured:
Assay in all cases: NCI-60 cell line screen, 384-well format; in the data active = GI50 below about 0.43 µM; inactive = the rest
NCI-H522 lung = tested on: NCI-H522 lung
TK-10 renal = tested on: TK-10 renal
HT29 colon = tested on: HT29 colon
UACC-257 melanoma = tested on: UACC-257 melanoma
BT-549 breast = tested on: BT-549 breast
A549 NSCLC = tested on: A549 NSCLC
LOX IMVI melanoma = tested on: LOX IMVI melanoma
A498 renal = tested on: A498 renal
786-0 renal = tested on: 786-0 renal
MCF7 breast = tested on: MCF7 breast
OVCAR-4 ovarian = tested on: OVCAR-4 ovarian
OVCAR-3 ovarian = tested on: OVCAR-3 ovarian
HCC-2998 colon = tested on: HCC-2998 colon
U251 glioblastoma = tested on: U251 glioblastoma
MDA-MB-468 breast = tested on: MDA-MB-468 breast
K-562 leukemia = tested on: K-562 leukemia
HCT-15 colon = tested on: HCT-15 colon
HCT-116 colon = tested on: HCT-116 colon
HL-60(TB) leukemia = tested on: HL-60(TB) leukemia
MDA-MB-231 breast = tested on: MDA-MB-231 breast
COLO 205 colon = tested on: COLO 205 colon
OVCAR-5 ovarian = tested on: OVCAR-5 ovarian
MALME-3M melanoma = tested on: MALME-3M melanoma
SNB-75 CNS = tested on: SNB-75 CNS
SF-295 CNS = tested on: SF-295 CNS
CAKI-1 renal = tested on: CAKI-1 renal
HOP-92 NSCLC = tested on: HOP-92 NSCLC
RXF 393 renal = tested on: RXF 393 renal
HOP-62 NSCLC = tested on: HOP-62 NSCLC
NCI-H23 lung = tested on: NCI-H23 lung
M14 melanoma = tested on: M14 melanoma
NCI-H226 lung = tested on: NCI-H226 lung
MOLT-4 leukemia = tested on: MOLT-4 leukemia
T-47D breast = tested on: T-47D breast
OVCAR-8 ovarian = tested on: OVCAR-8 ovarian
NCI-H460 NSCLC = tested on: NCI-H460 NSCLC
DU-145 prostate = tested on: DU-145 prostate
IGROV1 ovarian = tested on: IGROV1 ovarian
SK-OV-3 ovarian = tested on: SK-OV-3 ovarian
SN12C renal = tested on: SN12C renal
SK-MEL-28 melanoma = tested on: SK-MEL-28 melanoma
HS 578T breast = tested on: HS 578T breast
PC-3 prostate = tested on: PC-3 prostate
SNB-19 CNS = tested on: SNB-19 CNS
UACC-62 melanoma = tested on: UACC-62 melanoma
CCRF-CEM leukemia = tested on: CCRF-CEM leukemia
UO-31 renal = tested on: UO-31 renal

C#Cc1cccc(Nc2ncnc3cc(OCCOC)c(OCCOC)cc23)c1
> 90.5 µM: TGI (UACC-62 melanoma)
> 32.4 µM: TGI (UO-31 renal)
> 100 µM: TGI (TK-10 renal) | TGI (HT29 colon) | TGI (UACC-257 melanoma) | TGI (BT-549 breast) | TGI (A549 NSCLC) | TGI (LOX IMVI melanoma) | TGI (A498 renal) | TGI (786-0 renal) | TGI (MCF7 breast) | TGI (OVCAR-4 ovarian) | TGI (OVCAR-3 ovarian) | TGI (HCC-2998 colon) | TGI (U251 glioblastoma) | TGI (K-562 leukemia) | TGI (HCT-15 colon) | TGI (HCT-116 colon) | TGI (MDA-MB-231 breast) | TGI (COLO 205 colon) | TGI (OVCAR-5 ovarian) | TGI (MALME-3M melanoma) | TGI (SF-295 CNS) | TGI (HOP-62 NSCLC) | TGI (NCI-H23 lung) | TGI (M14 melanoma) | TGI (NCI-H226 lung) | TGI (OVCAR-8 ovarian) | TGI (NCI-H460 NSCLC) | TGI (DU-145 prostate) | TGI (SN12C renal) | TGI (SK-MEL-28 melanoma) | TGI (PC-3 prostate) | TGI (SNB-19 CNS) | TGI (CCRF-CEM leukemia)
inactive: GI50 (NCI-H522 lung) 0.433 µM | GI50 (TK-10 renal) 0.849 µM | GI50 (HT29 colon) > 90.8 µM | GI50 (UACC-257 melanoma) 96.9 µM | GI50 (BT-549 breast) 14.9 µM | GI50 (A549 NSCLC) 3.72 µM | GI50 (LOX IMVI melanoma) 7.97 µM | GI50 (A498 renal) 1.97 µM | GI50 ([…]-0 renal) 6.46 µM | GI50 (MCF7 breast) > 100 µM | GI50 (OVCAR-4 ovarian) 32 µM | GI50 (OVCAR-3 ovarian) 4.02 µM | GI50 (HCC-2998 colon) 48.4 µM | GI50 (U251 glioblastoma) 43.4 µM | GI50 (K-562 leukemia) 7.57 µM | GI50 (HCT-15 colon) 4.58 µM | GI50 (HCT-116 colon) 11.6 µM | GI50 (HL-60(TB) leukemia) 6.29 µM | GI50 (MDA-MB-231 breast) > 46.6 µM | GI50 (COLO 205 colon) > 100 µM | GI50 (OVCAR-5 ovarian) 6.96 µM | GI50 (MALME-3M melanoma) 16.8 µM | GI50 (SNB-75 CNS) 8 µM | GI50 (SF-295 CNS) > 51.9 µM | GI50 (CAKI-1 renal) 1.83 µM | GI50 (HOP-92 NSCLC) 11.9 µM | GI50 (RXF 393 renal) 7.83 µM | GI50 (HOP-62 NSCLC) 28.5 µM | GI50 (NCI-H23 lung) 25.2 µM | GI50 (M14 melanoma) 6.72 µM | GI50 (NCI-H226 lung) 9.26 µM | GI50 (MOLT-4 leukemia) 7.14 µM | GI50 (T-47D breast) 6.56 µM | GI50 (OVCAR-8 ovarian) 7.75 µM | GI50 (NCI-H460 NSCLC) 9.81 µM | GI50 (DU-145 prostate) 1.98 µM | GI50 (SK-OV-3 ovarian) 1.58 µM | GI50 (SN12C renal) 3.79 µM | GI50 (SK-MEL-28 melanoma) > 85.1 µM | GI50 (HS 578T breast) 3.85 µM | GI50 (PC-3 prostate) 23 µM | GI50 (SNB-19 CNS) > 100 µM | GI50 (UACC-62 melanoma) 6.74 µM | GI50 (CCRF-CEM leukemia) 11.2 µM | GI50 (UO-31 renal) 2.04 µM
> 43.1 µM: TGI (HL-60(TB) leukemia)
45.8 µM: TGI (HS 578T breast)
3.47 µM: TGI (NCI-H522 lung)
active: GI50 (MDA-MB-468 breast) 0.183 µM | GI50 (IGROV1 ovarian) 0.385 µM
> 27.3 µM: TGI (RXF 393 renal)
8.89 µM: TGI (CAKI-1 renal)
0.777 µM: TGI (MDA-MB-468 breast)
> 96.6 µM: TGI (HOP-92 NSCLC)
5.62 µM: TGI (IGROV1 ovarian)
> 51.9 µM: TGI (MOLT-4 leukemia)
50.5 µM: TGI (SNB-75 CNS)
8.28 µM: TGI (SK-OV-3 ovarian)
> 89 µM: TGI (T-47D breast)

CC(=O)OC[C@H]1O[C@@H](n2ccc(=O)[nH]c2=O)[C@H](OC(C)=O)[C@@H]1OC(C)=O
> 100 µM: TGI (NCI-H522 lung) | TGI (TK-10 renal) | TGI (HT29 colon) | TGI (UACC-257 melanoma) | TGI (BT-549 breast) | TGI (A549 NSCLC) | TGI (LOX IMVI melanoma) | TGI (A498 renal) | TGI (786-0 renal) | TGI (MCF7 breast) | TGI (OVCAR-4 ovarian) | TGI (OVCAR-3 ovarian) | TGI (HCC-2998 colon) | TGI (U251 glioblastoma) | TGI (MDA-MB-468 breast) | TGI (K-562 leukemia) | TGI (HCT-15 colon) | TGI (HCT-116 colon) | TGI (HL-60(TB) leukemia) | TGI (MDA-MB-231 breast) | TGI (COLO 205 colon) | TGI (OVCAR-5 ovarian) | TGI (MALME-3M melanoma) | TGI (SNB-75 CNS) | TGI (SF-295 CNS) | TGI (CAKI-1 renal) | TGI (HOP-92 NSCLC) | TGI (RXF 393 renal) | TGI (HOP-62 NSCLC) | TGI (NCI-H23 lung) | TGI (M14 melanoma) | TGI (NCI-H226 lung) | TGI (MOLT-4 leukemia) | TGI (T-47D breast) | TGI (OVCAR-8 ovarian) | TGI (NCI-H460 NSCLC) | TGI (DU-145 prostate) | TGI (IGROV1 ovarian) | TGI (SK-OV-3 ovarian) | TGI (SN12C renal) | TGI (SK-MEL-28 melanoma) | TGI (HS 578T breast) | TGI (PC-3 prostate) | TGI (SNB-19 CNS) | TGI (UACC-62 melanoma) | TGI (CCRF-CEM leukemia) | TGI (UO-31 renal)
inactive: GI50 (NCI-H522 lung) > 100 µM | GI50 (TK-10 renal) > 100 µM | GI50 (HT29 colon) > 100 µM | GI50 (UACC-257 melanoma) > 100 µM | GI50 (BT-549 breast) > 100 µM | GI50 (A549 NSCLC) > 100 µM | GI50 (LOX IMVI melanoma) > 100 µM | GI50 (A498 renal) > 100 µM | GI50 ([…]-0 renal) > 100 µM | GI50 (MCF7 breast) > 100 µM | GI50 (OVCAR-4 ovarian) > 100 µM | GI50 (OVCAR-3 ovarian) > 100 µM | GI50 (HCC-2998 colon) > 100 µM | GI50 (U251 glioblastoma) > 100 µM | GI50 (MDA-MB-468 breast) > 100 µM | GI50 (K-562 leukemia) > 100 µM | GI50 (HCT-15 colon) > 100 µM | GI50 (HCT-116 colon) > 100 µM | GI50 (HL-60(TB) leukemia) > 100 µM | GI50 (MDA-MB-231 breast) > 100 µM | GI50 (COLO 205 colon) > 100 µM | GI50 (OVCAR-5 ovarian) > 100 µM | GI50 (MALME-3M melanoma) > 100 µM | GI50 (SNB-75 CNS) > 100 µM | GI50 (SF-295 CNS) > 100 µM | GI50 (CAKI-1 renal) > 100 µM | GI50 (HOP-92 NSCLC) > 100 µM | GI50 (RXF 393 renal) > 100 µM | GI50 (HOP-62 NSCLC) > 100 µM | GI50 (NCI-H23 lung) > 100 µM | GI50 (M14 melanoma) > 100 µM | GI50 (NCI-H226 lung) > 100 µM | GI50 (MOLT-4 leukemia) > 100 µM | GI50 (T-47D breast) > 100 µM | GI50 (OVCAR-8 ovarian) > 100 µM | GI50 (NCI-H460 NSCLC) > 100 µM | GI50 (DU-145 prostate) > 100 µM | GI50 (IGROV1 ovarian) > 100 µM | GI50 (SK-OV-3 ovarian) > 100 µM | GI50 (SN12C renal) > 100 µM | GI50 (SK-MEL-28 melanoma) > 100 µM | GI50 (HS 578T breast) > 100 µM | GI50 (PC-3 prostate) > 100 µM | GI50 (SNB-19 CNS) > 100 µM | GI50 (UACC-62 melanoma) > 100 µM | GI50 (CCRF-CEM leukemia) > 100 µM | GI50 (UO-31 renal) > 100 µM
